Measured values from patent US20130072899A1, “Pharmaceutical Formulations for Iontophoretic Delivery of Gallium” (Nitric BloTherapeutics, Inc., priority 2008, published 2013).
Values joined by “and” are separate entries in the source; they are usually repeats but may differ in a detail not shown here. Identical values can stand only once. Like-named read-outs stand apart in the source and are kept apart here.

Experiments:
[1] = Gallium permeated through human cadaver skin, receptor analysis; format: in vitro ADME; conditions: any of the conditions tested
Method: Anodal and cathodal iontophoresis (0.3 mA/cm^2 for 15 min) were carried out using full thickness human cadaver skin in Franz diffusion cells. Ga nitrate solutions (0.15% in 0.05M citrate buffer, or a saturated solution of 16.6% in 0.1M/1M citrate buffer) at different pH conditions (2 to 8) were evaluated.

[2] = Chemical stability of Ga in different 50 mM buffers (HPLC gallium recovery); format: physicochemical
Method: The chemical stability of Ga in different 50 mM buffers was assessed including TRIS (pH 7.0), pyrrolidine (pH 11.3), citric acid (pH 5.0), borate (pH 8.0), formic acid (pH 2.5), phosphate (pH 7.3) and HEPES (pH 7.2). Three standard solutions of Ga in each buffer was assessed by HPLC analysis using the method described in Example 1 at four time points 0, 24, 48 and 100 h. Performance was measured by percentage gallium recovery according to the following formula: […]

With `O=[N+]([O-])[O-].O=[N+]([O-])[O-].O=[N+]([O-])[O-].[Ga+3]` [gallium nitrate, Gallium (III) nitrate hydrate] the “Ga in the receptor” value [1] was “not detected”, the “Ga loss after 100 h” value ([2]; 0.25 mg/ml Ga in pyrrolidine buffer, P<0.05, ANOVA) was “significant Ga loss” and the “[Ga] mg/ml recovered” value ([2]; Borate (pH 8.0) 50 mM, listed as Ga, nitrate hydrate) was “no peaks observed”. For the same compound, the “[Ga] mg/ml recovered” value ([2]; Citric acid (pH 5.0) 50 mM, target conc. 0.13 mg/ml) was 0.15 mg/mL, the “[Ga] mg/ml recovered” value ([2]; Citric acid (pH 5.0) 50 mM, target conc. 0.25 mg/ml) was 0.28 mg/mL and the “[Ga] mg/ml recovered” value ([2]; Citric acid (pH 5.0) 50 mM, target conc. 0.5 mg/ml) was 0.54 mg/mL. For the same compound, the “[Ga] mg/ml recovered” value ([2]; Formic acid (pH 2.5) 50 mM, target conc. 0.13 mg/ml) was 0.16 mg/mL, the “[Ga] mg/ml recovered” value ([2]; Formic acid (pH 2.5) 50 mM, target conc. 0.25 mg/ml) was 0.29 mg/mL and the “[Ga] mg/ml recovered” value ([2]; Formic acid (pH 2.5) 50 mM, target conc. 0.5 mg/ml) was 0.55 mg/mL. For the same compound, the “[Ga] mg/ml recovered” value ([2]; HEPES (pH 7.2) 50 mM, target conc. 0.13 mg/ml) was 0.10 mg/mL, the “[Ga] mg/ml recovered” value ([2]; HEPES (pH 7.2) 50 mM, target conc. 0.25 mg/ml) was 0.06 mg/mL and the “[Ga] mg/ml recovered” value ([2]; HEPES (pH 7.2) 50 mM, target conc. 0.5 mg/ml) was 0.13 mg/mL. For the same compound, the “[Ga] mg/ml recovered” value ([2]; Phosphate (pH 7.3) 50 mM, target conc. 0.13 mg/ml) was 0.04 mg/mL, the “[Ga] mg/ml recovered” value ([2]; Phosphate (pH 7.3) 50 mM, target conc. 0.25 mg/ml) was 0.11 mg/mL and the “[Ga] mg/ml recovered” value ([2]; Phosphate (pH 7.3) 50 mM, target conc. 0.5 mg/ml) was 0.30 mg/mL. For the same compound, the “[Ga] mg/ml recovered” value ([2]; Pyrrolidine (pH 11.3) 50 mM, target conc. 0.13 mg/ml) was 0.13 mg/mL, the “[Ga] mg/ml recovered” value ([2]; Pyrrolidine (pH 11.3) 50 mM, target conc. 0.25 mg/ml) was 0.25 mg/mL and the “[Ga] mg/ml recovered” value ([2]; Pyrrolidine (pH 11.3) 50 mM, target conc. 0.5 mg/ml) was 0.49 mg/mL. The “[Ga] mg/ml recovered” value ([2]; TRIS (pH 7.0) 50 mM, target conc. 0.13 mg/ml) was 0.01 mg/mL, the “[Ga] mg/ml recovered” value ([2]; TRIS (pH 7.0) 50 mM, target conc. 0.25 mg/ml) was 0.13 mg/mL and the “[Ga] mg/ml recovered” value ([2]; TRIS (pH 7.0) 50 mM, target conc. 0.5 mg/ml) was 0.49 mg/mL. For the same compound, the “Ga loss between 0 and 100 h” value ([2]; citric or formic acid buffer, P>0.05, ANOVA) was “No significant Ga loss”, the gallium skin deposition (0.15% in 0.05M citrate buffer, pH 2, cathodal 0.3 mA/cm^2 15 min) was 277.90 ± 51.24 ng/mg and the gallium skin deposition (0.15% in 0.05M citrate buffer, pH 3, cathodal 0.3 mA/cm^2 15 min) was 113.16 ± 17.65 ng/mg. The gallium skin deposition (0.15% in 0.05M citrate buffer, pH 4, cathodal 0.3 mA/cm^2 15 min) was 60.5 ± 21.11 ng/mg, the gallium skin deposition (0.15% in 0.05M citrate buffer, pH 6, cathodal 0.3 mA/cm^2 15 min) was 51.16 ± 6.65 ng/mg and the “maximum skin deposition expressed as concentration” value (16.6% gallium nitrate in 1M citrate at pH 8, 0.3 mA/cm^2 for 15 min) was 0.78 mg/mL. It also gave a gallium skin deposition (16.6% in 0.1 M citrate buffer, pH 2, anodal) of 91.74 ± 13.09 ng/mg, a gallium skin deposition (16.6% in 0.1 M citrate buffer, pH 4, anodal) of 74.42 ± 22.31 ng/mg and a gallium skin deposition (16.6% in 0.1 M citrate buffer, pH 6, anodal) of 62.19 ± 23.76 ng/mg. The gallium skin deposition (16.6% in 0.1 M citrate buffer, pH 6, cathodal) was 99.62 ± 36.44 ng/mg, the gallium skin deposition (16.6% in 1M citrate buffer, pH 6, cathodal) was 163.72 ± 36.72 ng/mg and the gallium skin deposition (16.6% in 1M citrate buffer, pH 7, cathodal) was 250.49 ± 39.76 ng/mg. The gallium skin deposition (16.6% in 1M citrate buffer, pH 8, cathodal, nitrate hydrate) was 329.52 ± 36.10 ng/mg and 330 ng/mg.
